Values after ≈ are worked out from the molar mass of the structure shown.
Columns and labels:
[1] = test system: Staphylococcus aureus ATCC 29213 (MSSA); experiment: minimum inhibitory concentration; extreme values may be limits of the assay
Outline: (§1)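 Methicillin-susceptible and methicillin-resistant Staphylococcus aureus were assessed by broth microdilution with a resazurin read-out, compounds spanning 0 to 100 µM and incubated for 24 h at 37°C before 30 µl of 0.015% resazurin was added for 2–4 h. For the minimum inhibitory concentration, the lowest concentration whose well stayed blue rather than pink was recorded.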

[2] = test system: Staphylococcus aureus ATCC 700699 (MRSA); experiment: as above
Outline: as §1

| SMILES | minimum inhibitory concentration [1] | minimum inhibitory concentration [2] |
| --- | --- | --- |
| CO/C=C(/C(=O)OC)c1ccccc1Oc1cc(Oc2ccccc2C#N)ncn1 | > 50 µM | > 50 µM |
| COc1cccc(OC)c1C(=O)Nc1ccc(Cl)c(-c2nc3ccccc3s2)c1 | > 50 µM | > 50 µM |
| Cc1nn(C)c(C)c1NS(=O)(=O)c1c(Cl)cc(-c2ccnc(N3CCNCC3)c2)cc1Cl | > 50 µM | > 50 µM |
| Cc1cc(Nc2ccc(C(F)(F)F)cc2)n2ccnc2n1 | > 50 µM | > 50 µM |
| Cc1cc(NC(=O)c2ccc(S(=O)(=O)N(Cc3ccccc3)C(C)C)cc2)no1 | > 50 µM | > 50 µM |
| O=C(NC1CC1)c1ccc(N2CCOc3ccc(Cl)cc32)s1 | > 50 µM | > 50 µM |
| NS(=O)(=O)c1cncc(-c2ccc3nccc(-c4cn[nH]c4)c3n2)c1 | > 50 µM | > 50 µM |
| Cc1ccc(C(=O)Nc2ccc(S(=O)(=O)O)c3cc(S(=O)(=O)O)cc(S(=O)(=O)O)c23)cc1NC(=O)c1cccc(NC(=O)Nc2cccc(C(=O)Nc3cc(C(=O)Nc4ccc(S(=O)(=O)O)c5cc(S(=O)(=O)O)cc(S(=O)(=O)O)c45)ccc3C)c2)c1 | > 50 µM | > 50 µM |
| CN1CCN(CCCOc2ncc(Nc3ncc(-c4ccc(C(F)(F)F)c(F)c4)nc3C(N)=O)cn2)CC1 | > 50 µM | > 50 µM |
| O[C@@H](c1cc(C(F)(F)F)nc2c(C(F)(F)F)cccc12)[C@H]1CCCCN1 | 50 µM (≈ 18.9 µg/mL) | 25 µM (≈ 9.46 µg/mL) |
| Cn1ccnc1CNCCS(=O)(=O)c1cccc(Nc2ccc(-c3cccc(F)c3)cn2)c1 | > 50 µM | > 50 µM |
| Brc1c(-c2ccc3c(c2)OCO3)nc2ncccn12 | > 50 µM | > 50 µM |
| O=C(NC1CCCCC1)N1CCN(Cc2ccc3c(c2)OCO3)CC1 | > 50 µM | > 50 µM |
| COc1ccc(C2=NCCN2)cc1-c1cn(-c2cccc(C3=NCCN3)c2)nn1 | > 50 µM | > 50 µM |
| O=C(NCCN1CCCC1)c1cc(NCCCCN2CCC(F)(F)CC2)nc2ccc(Cl)cc12 | > 50 µM | > 50 µM |
| CC(C)C(NC(=O)Cc1cccc2ccccc12)C(=O)Nc1cccc(C#N)c1 (stereo not given) | > 50 µM | > 50 µM |
| CO/N=C(\C(=O)OC)c1ccccc1CO/N=C(\C)c1cccc(C(F)(F)F)c1 | > 50 µM | > 50 µM |
| O=C(NC1CCN(c2ccnc3ccccc23)C1)c1cccc(C(F)(F)F)c1 (stereo not given) | > 50 µM | > 50 µM |
| Cc1ccccc1C(=O)N1N=C(Nc2ccccc2)SC1(C)C | > 50 µM | > 50 µM |
| Cc1ccc2cc(C3NC(=O)c4ccccc4N3)c(Cl)nc2c1 (stereo not given) | > 50 µM | > 50 µM |
| NC(CC(=O)c1ccc(Cl)cc1Cl)C(Cl)(Cl)Cl (stereo not given) | > 50 µM | > 50 µM |
| CC1CCCCN1C(=O)NCCc1coc(-c2ccc(F)cc2)n1 (stereo not given) | > 50 µM | > 50 µM |
| NC(=O)c1cc(Br)ccc1OCCOc1ccccc1 | > 50 µM | > 50 µM |
| CCOC(=O)c1cc(-c2csc(Nc3c(C)cc(C)cc3C)n2)on1 | > 50 µM | > 50 µM |
| COc1cccc(OCC(=O)c2ccc(Br)cc2)c1 | > 50 µM | > 50 µM |

| SMILES | minimum inhibitory concentration [1] | minimum inhibitory concentration [2] |
| --- | --- | --- |
| COc1cc2ncnc(NC3CCN(Cc4ccccc4)CC3)c2cc1OC | > 50 µM | > 50 µM |
| C[C@]1(O)C[C@@H](c2nc(-c3ccc4ccc(-c5ccccc5)nc4c3)c3c(N)nccn32)C1 | > 50 µM | > 50 µM |
| CS(=O)(=O)N1CCC(CCn2nc(Cc3cccc4ccccc34)c3c(N)ncnc32)CC1 | > 50 µM | > 50 µM |
| CS(=O)(=O)c1cccc(-c2cnc3[nH]cc(-c4ccc(CCC(=O)O)cc4)c3c2)c1 | > 50 µM | > 50 µM |
| O=C(Nc1ccccc1)c1ccc(-c2cc3ccncc3cc2OC2CCNCC2)s1 | 50 µM (≈ 21.5 µg/mL) | 50 µM (≈ 21.5 µg/mL) |
| CCn1ncc2c(NC3CCOCC3)c(CNC(=O)c3ccnn3C)c(C)nc21 | > 50 µM | > 50 µM |
| CC(C)(C)OC(=O)N1CCC(Cn2nc(-c3cnc4ccccc4c3)c3c(N)ncnc32)CC1 | > 50 µM | > 50 µM |
| Cc1cc(OCC(=O)Nc2ccc(C(C)C)cc2)n(C)c(=O)c1C#N | > 50 µM | > 50 µM |
| COc1cc(OC)cc(C(=O)NCC2Cc3cc(Cl)cc(-c4ccncc4)c3O2)c1 (stereo not given) | > 50 µM | > 50 µM |
| CC(C)/N=c1\cc2n(-c3ccc(Cl)cc3)c3ccccc3nc-2cc1Nc1ccc(Cl)cc1 | > 50 µM | > 50 µM |
| NCCCC(N)(C(=O)O)C(F)F (stereo not given) | > 50 µM | > 50 µM |
| COc1ccc(C2=NN(C3CCCCCC3)C(=O)C2(C)C)cc1OCCCCOc1ccc(-c2nn[nH]n2)cc1 | 50 µM (≈ 27.3 µg/mL) | 50 µM (≈ 27.3 µg/mL) |
| O=C(Nc1ccc2c(c1)B(O)OC2)c1ccccc1C(F)(F)F | > 50 µM | > 50 µM |
| O=C(Nc1ccccc1-c1nc2c(C(=O)O)cccc2o1)c1ccccc1 | > 50 µM | > 50 µM |
| COc1cc(C2=NCCN2)ccc1-c1cn(-c2cccc(C3=NCCN3)c2)nn1 | > 50 µM | > 50 µM |
| CCC(=O)Nc1ccccc1C(=O)Nc1ccccn1 | > 50 µM | > 50 µM |
| c1ccc(Oc2ccc(-c3cc(C4CCOCC4)[nH]n3)cc2)cc1 | > 50 µM | > 50 µM |
| OC[C@H]1O[C@@H](n2c3ccc(Cl)cc3c3c(-c4cc5ccccc5o4)ncnc32)C(O)[C@H]1O (stereo not given in full) | > 50 µM | > 50 µM |
| O=C(NCc1cc(Cl)cc(Cl)c1)c1c(C(F)(F)F)nc2ccccn12 | > 50 µM | > 50 µM |
| c1ccc(-c2[nH]c3ccccc3c2C(c2ccccn2)N2CCCC2)cc1 (stereo not given) | > 50 µM | > 50 µM |
| O=C(OCc1ccccc1)N1CCC(c2cc(-c3ccncc3)c(-c3ccc(F)cc3)[nH]2)CC1 | > 50 µM | > 50 µM |
| O=C(NCCN1CCCC1)c1cc(NCCN2CCOCC2)nc2ccc(Cl)cc12 | 50 µM (≈ 21.6 µg/mL) | 50 µM (≈ 21.6 µg/mL) |
| COc1cc(-c2cc(-c3ccc(S(C)(=O)=O)cc3)cnc2N)ccc1O | > 50 µM | > 50 µM |
| NS(=O)(=O)c1cccc(-c2ccc3ncc(N4CCOCC4)nc3c2)c1 | > 50 µM | > 50 µM |
| COc1ccc(C(=N)N)cc1-c1cn(-c2ccc(C(=N)N)cc2)nn1 | > 50 µM | > 50 µM |

From the supplement of paper PMC6206229
